pIC50: −log10 of the molar value. Where two headings read alike, the source gives them in different places.
Columns and labels:
[1] = Test substance levels / bioavailability (AUC) in systemic circulation of telemetrized dTG rats; format: in vivo; conditions: double transgenic (dTG), rat, T24h, read-out: AUC24h
[2] = target: T1, Plasma renin activity (PRA) (Homo sapiens, UniProt P00797); test: Plasma renin activity (PRA) inhibition in dTG rats after TD delivery; format: in vivo, rat; conditions: TD 10 mg in DMSO (33 mg/kg); PRA at T4h vs T0h
T1 construct: from tissue; host or cells: plasma of female double transgenic rats (human renin and angiotensinogen transgenes)
T1 sequence (P00797 67-406): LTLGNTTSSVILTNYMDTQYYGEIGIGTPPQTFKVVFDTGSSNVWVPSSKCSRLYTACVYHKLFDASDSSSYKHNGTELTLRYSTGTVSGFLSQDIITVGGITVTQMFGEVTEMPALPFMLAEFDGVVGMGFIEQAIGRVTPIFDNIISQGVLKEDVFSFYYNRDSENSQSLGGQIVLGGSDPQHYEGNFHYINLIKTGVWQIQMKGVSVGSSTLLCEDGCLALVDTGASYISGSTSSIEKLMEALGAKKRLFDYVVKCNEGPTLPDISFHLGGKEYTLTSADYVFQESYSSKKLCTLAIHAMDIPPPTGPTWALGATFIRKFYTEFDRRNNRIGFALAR
Experimental: (§1) For transdermal delivery, double transgenic rats with implanted pressure transmitters were dosed with a single application on the shaved skin of the rat of vehicle (250 μl of 100% DMSO; n=4) or of the test compound (10 mg in 250 μl of 100% DMSO, i.e. 33 mg/kg; n=5). The rat was lightly sedated under 2.5% isoflurane anesthesia, and its back was shaved over a 4 cm^2 area. The animal was returned to his cage to recover from anesthesia. Twenty-four hours later, the rat was lightly sedated under 2.5% isoflurane anesthesia, and the shaved area disinfected with 3 passes of ethanol.
A blood sample (0.3 ml) was taken by tail bleed or jugular iv in the telemetrized dTGs, at T0h, T4h and T24h after TD delivery to determine test substance levels and bioavailability (estimated as area under the curve, or AUC) of the active substance in systemic circulation. Plasma renin activity (PRA) was also measured at T0h and T4h. The effect of the test substance on PRA is expressed as the percentage of inhibition of PRA at T4h vs T0h.

[3] = test system: female double transgenic rats (transgenic for human renin and angiotensin); test: Telemetry of mean arterial blood pressure after oral vs transdermal delivery in double transgenic rats; format: in vivo, rat; conditions: for ABC36h: area between curves of MAP
Experimental: Female double transgenic rats (rats transgenic for human renin and […] (see, e.g., Bohlender et al., J Am Soc Nephrol 11:2056 (2000)) were developed. All animals were maintained under identical conditions and had free access to normal pelleted rat chow and water. Rats were initially treated with enalapril (1 mg/kg/day), starting 3 weeks after birth and during 9 weeks. Telemetry transmitters are implanted within 2 to 4 weeks after cessation of enalapril treatment. After approximately two weeks following cessation of enalapril treatment, the double transgenic rats are hypertensive with mean arterial blood pressures in the range of 160-170 mmHg.
Transmitter implantation—The rats were anesthetized using isoflurane (via inhalation, 2-3%) The pressure transmitter was implanted under aseptic conditions into the peritoneal cavity with the sensing catheter placed in the descending aorta below the renal arteries pointing upstream. The transmitter was sutured to the abdominal musculature, the skin closed, and the rats were individually housed in a cage, placed on a telemetry receiver pad to enable collection of the blood pressure data during recovery from anesthesia and thereafter. The rats were single-caged for the duration of the recording of telemetry data.
Telemetry System—Telemetry units were obtained from Data Sciences International (DSI, St. Paul, Minn.). […] The tip of the catheter was filled with a viscous gel that prevents blood reflux. The implants (length=2.5 cm, diameter=1.2 cm) weighed 9 g and have a typical battery life of 6 months. A receiver platform (RPC-1, DSI) connected the radio signal to digitized input that was sent to a dedicated personal computer. Arterial pressures were calibrated by using an input from an ambient-pressure reference (APR-1, DSI). Systolic, mean and diastolic blood pressure was expressed in millimeter of mercury (mmHg).
Telemetry data analysis—Signals received by the receivers were digitized for 10 seconds every 5 minutes, at 500 Hz. From this signal, mean arterial pressure (MAP), systolic and diastolic blood pressure (SBP and DPB), pulse pressure (PP), heart rate (HR) and activity (ACT) were derived. A one-hour moving average of the data was then performed by the DSI analysis software. Data were then exported to an Excel template for the calculation of group statistics, areas between curves (ABC), maximal effect and duration of MAP reduction.
Drug administration—For oral delivery, double transgenic rats with implanted pressure transmitters were dosed by oral gavage with a single bolus of vehicle (0.5% methocel; 5 ml/kg) or of the test substance (30 mg/5 ml/kg) (n=5 per group). After dosing, the rat was returned to his cage. Blood pressure data were collected up to 5 days after oral dosing.
as §1
After evaporation of the ethanol, a volume of 250 μl of 100% DMSO only, or of the compound dissolved in a 100% DMSO solution was applied over the shaved area using a micropipette. After complete evaporation of the DMSO solution (within 5 min after application), an occlusive transparent, waterproof film (OpSite) was taped to the back of the animal over the shaved area, and a jacket was fitted on the animal. Isoflurane inhalation was stopped, and the animal individually caged for telemetry data collection. Blood pressure data were collected up to 5 days after application of the compound/DMSO solution.

Human recombinant renin = target: T2, Human recombinant renin (Homo sapiens, UniProt P00797); test: Inhibition of human recombinant renin (buffer); format: biochemical; conditions: 100 pM renin, 50 mM MOPS pH 7.4, 37° C., 3 hours; read-out: Human Renin IC50 (buffer)
T2 construct: purchased Proteos
T2 sequence (P00797 67-406): T1 sequence (P00797 67-406)
Experimental: Fluorescence is measured at times 0 and 3 hours with a SpectraMax Gemini EM reader set at an excitation wavelength of 328 nm and at an emission wavelength of 388 nm. Background fluorescence at t=0 is subtracted from the measurement at t=3 hours. Inhibitory activity of the compounds is expressed as IC50.

[4] = target: T3, recombinant renin in human plasma (Homo sapiens, UniProt P00797); test: Inhibition of renin in human plasma; format: biochemical; conditions: human EDTA plasma, 1 nM recombinant renin added, 37° C., 1 hour; read-out: Human Renin IC50 (plasma)
T3 construct: purchased Proteos
T3 sequence (P00797 67-406): T1 sequence (P00797 67-406)
Experimental: Human EDTA-collected plasma is rapidly thawed in warm water and centrifuged at 2900 g for 15 minutes at 4° C. The supernatant is collected and recombinant renin (Proteos) is added at a final concentration of 1 nM. […] The plate is incubated at 37° C. for 1 hour. […] Background fluorescence at t=0 is subtracted from the measurement at t=1 hour. Inhibitory activity of the compounds is expressed as IC50.

[5] = PO, single oral gavage 30 mg/5 ml/kg in 0.5% methocel
[6] = TD, single application 10 mg in 250 μl 100% DMSO (33 mg/kg) on shaved skin

Row | pIC50 (Human recombinant renin) | pIC50 [4] | Structure (SMILES) | AUC(0-t) ([1]; topical, TD 10 mg in DMSO (33 mg/kg), blood samples at T0h, T4h) [µM·h] | AUC(0-t) ([1]; PO 30 mg/kg, blood samples at T0, T6h) [µM·h] | PRA inhibition at 4 h [2] [%] | duration of MAP reduction [3, 5] [days] | max MAP decrease [3, 5] [mmHg] | ABC36h [3, 5] [mmHg * h] | duration of MAP reduction [3, 6] [days] | max MAP decrease [3, 6] [mmHg] | ABC36h [3, 6] [mmHg * h]
1 | – | – | COCCCc1cc(CN(C(=O)[C@H]2CNCC[C@@H]2c2ccn(C)c(=O)c2)C2CC2)cc(Br)c1C (relative stereo) [test substance, trans-N-({3-Bromo-4-methyl-5-[3-(methyloxy)propyl]phenyl}methyl)-N-cyclopropyl-4-(1-methyl-2-oxo-1,2-dihydro-4-pyridinyl)-3-piperidinecarboxamide] | 2.9 | 1.8 | 98 | 2 | 57 | 1143 | 1 | 30 | 514
2 | 8.08 | 7.77 | Cn1ccc(C2CCNC[C@@H]2C(=O)N(Cc2cc(CCC#N)cc(Cl)c2Cl)C2CC2)cc1=O (stereo in doubt) [Example 30, trans-N-Cyclopropyl-N-{[2,3-dichloro-5-(2-cyanoethyl)phenyl]methyl}-4-(1-methyl-2-oxo-1,2-dihydro-4-pyridinyl)-3-piperidinecarboxamide] | – | – | – | – | – | – | – | – | –
